The source of these data is patent US12686668B2, “Leukotriene synthesis inhibitors” (Naegis Pharmaceuticals Inc., priority 2019, dated 2026).

In one assay the test system is AA-induced ear edema. The assay can be described thus: Arachidonic acid (AA) induced mouse ear edema model. To be noted: 4 hrs and 1 hr before AA 2 mg/ear, mice; for % Inhibition AA-Induced ear edema (0.3 mg/ear): topical 0.3 mg/ear; for % Inhibition AA-Induced ear edema (1 mg/ear): topical 1 mg/ear. The class given is in vivo, CD-1 mice. As for the experimental part:
One group serves as a control and receives 20 μL of vehicle applied to the pinna of each ear (10 μL to the inside and 10 μL to the outside of the pinna). One or more additional groups serve as test groups. The test compound was applied to the pinna of one ear of the mouse in a 20 μL volume (10 μL to the inside and 10 μL to the outside of the pinna). Test compound or control vehicle (acetone/1% DMSO) was applied topically to the right ear 4 and 1 hour before the application of 2 mg/ear AA as a stimulus to both the inner and outer surfaces of CD-1 mice. The left ears received vehicle (acetone/1% DMSO) alone. The animal was lightly anesthetized again using isofluorane to enable application of the stimulus. For the control group, arachidonic acid (2 mg/ear) was applied as the stimulus to the pinna of one ear only, in a total volume of 20 μL of acetone (10 μL applied to the inside and 10 μL to the outside of the pinna). The other ear received 20 μL of acetone. This served to determine the increase in ear weight due to arachidonic acid in the absence of test compounds. For the test groups, arachidonic acid (2 mg/ear) was applied as the stimulus to the pinna of each ear, in a total volume of 20 μL of acetone (10 μL applied to the inside and 10 μL to the outside of the pinna). The animal was allowed to recover after application of the stimulus in each case. After 60 minutes the animal was euthanized and a standard biopsy sample was taken from each ear using a 6 mm skin biopsy punch (Acuderm). Ear edema was determined by the increase in weight of the tissue due to accumulation of fluid as a result of plasma extravasation. The ears were weighed separately using a balance suitable to record 0.1 mg. For the control group, the difference in ear weights was determined by subtracting the weight of the unstimulated ear from the stimulated ear, and this was a measure of the increase in ear weight due to edema. The percentage increase in ear weight was determined by dividing the increase in stimulated ear weight by the unstimulated ear weight and multiplying by 100. For the test groups, the difference in ear weights was determined by subtracting the weight of the untreated ear from the weight of the ear treated with test compound. The percent inhibition of the increase in ear weight for ears treated with the test compound was estimated by first subtracting the mean ear weight of the untreated controls from each tissue to determine the increase in tissue weight due to application of the arachidonic acid. The percent inhibition=1−(test drug stimulated ear (mg)/control stimulated ear (mg))×100. In Table 5, the data from inhibition of AA-induced ear edema in mice by topical application of compounds is provided. Compounds (0.3 or 1 mg/ear) were applied topically to the ear 4 hrs and 1 hr prior to application of arachidonic acid (AA; 2 mg/ear).

Assay [1] concerns LTB4 production in porcine or human whole blood. The assay can be described thus: Whole blood HPLC assay, inhibition of LTB4 production. The conditions noted are these: 5 point curve, porcine or human whole blood (not specified). The class given is cell-based. The procedure: Porcine or human whole blood (1 mL) was pre-incubated with a series of concentrations of compound solubilized in DMSO for 30 minutes. Production of leukotrienes were stimulated with the addition of 20 μM calcium ionophore (A23187), diluted from a 4 mM DMSO stock in HBSS, and incubated at room temperature for 20 minutes. In porcine blood 20 μM arachidonic acid was added in addition to the calcium ionophore. The blood was centrifuged at 2,000 rpm for 15 minutes, and the plasma fraction removed for further processing. Plasma samples were diluted with 500 μL acidified water (HCl pH 3.0) and loaded onto C18 SEP-PAK columns (Canadian Lifesciences IS12000) for solid phase extraction. The leukotrienes were analyzed by HPLC using an ACE C18 column (4.5 mm×150 mm, 5 m) eluted with acetonitrile/methanol/water mixture with H3PO4, pH 3.5 (37:26:37) with a flow rate of 1.8 mL/min. The amount of LTB4 (Cayman Chemical, 20110) was calculated based on reference standards and the level of inhibition of LTB4 production induced by the test compounds was calculated relative to control samples. The results provided in Table 3 are IC50 values calculated based on a 5 point curve, where Compound No. refers to the compounds identified in Table 1.

Assay [2] concerns LTC4 production in MC/9 cells. The assay can be described thus: MC/9 HPLC assay, inhibition of LTC4 production. The class given is cell-based. To be noted: Mus musculus; for inhibition at 3 µM: MC9, 3 μM, A23187 stimulated. A digest of the protocol: (§1)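 MC/9 cells (3×10^6 in HBSS) pre-incubated 30 min with compound, then stimulated 20 min at room temperature with 1 μM A23187. After methanol quench and C18 solid-phase extraction, LTB4 and LTC4 quantified by HPLC against reference standards; inhibition relative to control samples.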

Assay [3] relates to LTB4 production in MC/9 cells. The assay can be described thus: MC/9 HPLC assay, inhibition of LTB4 production. The class given is cell-based. To be noted: Mus musculus. A digest of the protocol: as §1
The target of assay [4] is T1, recombinant human leukotriene A4 hydrolase enzyme (Homo sapiens, UniProt P09960).
T1 construct: purchased Cayman Chemical 10007817
T1 sequence (P09960 1-611): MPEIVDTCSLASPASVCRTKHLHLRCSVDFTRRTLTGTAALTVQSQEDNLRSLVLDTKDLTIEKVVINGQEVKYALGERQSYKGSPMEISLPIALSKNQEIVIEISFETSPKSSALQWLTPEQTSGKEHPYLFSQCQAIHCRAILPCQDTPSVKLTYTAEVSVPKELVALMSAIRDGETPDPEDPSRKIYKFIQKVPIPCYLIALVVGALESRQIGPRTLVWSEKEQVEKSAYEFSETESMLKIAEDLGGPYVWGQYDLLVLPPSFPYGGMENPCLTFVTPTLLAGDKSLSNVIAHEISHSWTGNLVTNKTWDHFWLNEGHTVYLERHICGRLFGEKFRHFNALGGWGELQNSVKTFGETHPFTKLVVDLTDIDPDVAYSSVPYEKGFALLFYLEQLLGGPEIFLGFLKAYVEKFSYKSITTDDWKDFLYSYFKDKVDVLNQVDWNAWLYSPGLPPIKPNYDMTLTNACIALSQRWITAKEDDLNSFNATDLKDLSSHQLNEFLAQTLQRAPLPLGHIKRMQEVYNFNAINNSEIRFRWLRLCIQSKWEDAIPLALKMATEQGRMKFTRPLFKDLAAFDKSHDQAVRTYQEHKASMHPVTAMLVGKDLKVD
The assay can be described thus: Amino-peptidase assay, alanine-4-nitroanalide. The class given is biochemical. The conditions noted are these: negative values = augmented peptidase activity, read-out: % Inhibition aminopeptidase-Alanine-4-nitroanalide activity of LTA4H (3 μM). A digest of the protocol: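 Compounds pre-incubated in the dark with recombinant human LTA4H (0.5 μg) in 50 mM Tris-HCl, 100 mM KCl; reaction started with alanine-4-nitroanilide (6 mM solution). Aminopeptidase rate followed as A405 from 4-nitroaniline, referenced to a standard; inhibition calculated versus controls, with negative values indicating augmented activity.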

In assay [5] the target is T1, recombinant human leukotriene A4 hydrolase enzyme. The assay can be described thus: Amino-peptidase assay, PGP. The conditions noted are these: concentration not given. It is filed as biochemical. As for the experimental part:
A series of compound concentrations were pre-incubated with 50 ng of recombinant human leukotriene A4 hydrolase enzyme (Cayman Chemical, 10007817) in 50 L assay buffer (50 mM Tris-HCl, 100 mM KCl). The reaction was stimulated by adding 50 L 1 mM proline-glycine-proline (Bachem, H-7284) and incubated for 30 minutes at 37° C. The reaction was stopped with the addition of 150 μL of glacial acetic acid. The amount of free proline released from the peptide was detected through a reaction with ninhydrin. 150 μL of 25 mg/mL ninhydrin (BDH, B10132) in 60:40 acetic acid/water was added to each sample, and boiled for 30 minutes at 100° C. and once samples had cooled to room temperature, 350 μL of toluene was added to extract the ninhydrin reaction product. The amount of free proline was determined by comparing the absorbance at 520 nm to the L-proline (Sigma Aldrich, 81709) reference standard. Inhibition of free proline production was calculated based on control samples.

[6] abbreviates: MC9, 1 μM, read-out: % inhibition LTC4 (1 μM).
Setting [7] is: MC9, Table 2 column 3, no concentration in head (1 μM according to b732), read-out: % Inhibition LTC4.
Setting [8] is: MC9, 1 μM, read-out: % inhibition LTB4 (1 μM).
Setting [9] is: MC9, Table 2 column 4, no concentration in head (1 μM according to b732), read-out: % Inhibition LTB4.

Where two headings read alike, the source gives them in different places.

On to `CCC(O)(CCc1ccc(Oc2nc3ccccc3s2)c(OC)c1)C(F)(F)F` (centres unmarked) [Compound 103, 1-[4-(1,3-benzothiazol-2-yloxy)-3-methoxyphenyl]-3-(trifluoromethyl)pentan-3-ol], for which the “% Inhibition AA-Induced ear edema (0.3 mg/ear)” value in the assay on AA-induced ear edema is recorded as 30-50%. Also, the “% Inhibition AA-Induced ear edema (1 mg/ear)” value in the assay on AA-induced ear edema is recorded as 70-90%. For the same compound, in assay [1], the concentration for half-maximal inhibition (IC50) was 1 to 10 µM. The inhibition at 1 µM in assay [2] (setting [6]), in assay [2] (setting [7]), in assay [3] (setting [8]) and in assay [3] (setting [9]) was 50 to 70% throughout. The compound further showed an inhibition at 3 µM in assay [2] of more than 90%.
Take `CCC(O)(CCc1ccc(Oc2nc3ccc(F)cc3s2)c(OC)c1)C(F)(F)F` (centres unmarked) [Compound 108, 1-{4-[(6-fluoro-1,3-benzothiazol-2-yl)oxy]-3-methoxyphenyl}-3-(trifluoromethyl)pentan-3-ol]: in the assay with AA-induced ear edema, the “% Inhibition AA-Induced ear edema (0.3 mg/ear)” value was less than 10% and the “% Inhibition AA-Induced ear edema (1 mg/ear)” value is reported as 30-50%. This compound also yielded an IC50 in assay [1] of 1 to 10 µM. The inhibition at 3 µM in assay [2] lay within 50 to 70%. For the same compound, in assay [2] (setting [7]), the inhibition at 1 µM fell in the range of 70 to 90%. The inhibition at 1 µM in assay [3] (setting [9]) was more than 90%.
As for `CC(O)(CCc1ccc(Oc2nc3ccccc3o2)cc1)c1ccccc1` (centres unmarked) [Compound 147, 4-[4-(1,3-benzoxazol-2-yloxy)phenyl]-2-phenylbutan-2-ol], in assay [4], the inhibition at 3 µM is 50 to 75%. Moreover, in assay [5], the “% Inhibition aminopeptidase-PGP activity of LTA4H” value is reported as 25-50%. The figures for the inhibition at 1 µM in assay [2] (setting [7]) and in assay [3] (setting [9]) were 30 to 50% and more than 90%, respectively.
For the compound `CCC(=O)CCc1ccc(Oc2nc3ccccc3s2)c(Cl)c1` [Compound 149, 1-[4-(1,3-benzothiazol-2-yloxy)-3-chlorophenyl]pentan-3-one], the inhibition at 3 µM in assay [4] is less than 25%. For the same compound, the “% Inhibition aminopeptidase-PGP activity of LTA4H” value in assay [5] is on record as 25-50%. In addition, the inhibition at 1 µM is 30 to 50% in assay [2] (setting [7]) and 50 to 70% in assay [3] (setting [9]).
`CCC(O)(CCc1ccc(Oc2nc3ccccc3s2)cc1)C(F)(F)F` (centres unmarked) [Compound 150, 1-[4-(1,3-benzothiazol-2-yloxy)phenyl]-3-(trifluoromethyl)pentan-3-ol] came in with a half-inhibitory concentration (IC50) in assay [1] of 1 to 10 µM. In addition, the inhibition at 3 µM in assay [4] lay within 25 to 50%; in assay [2], 70 to 90%. The “% Inhibition aminopeptidase-PGP activity of LTA4H” value in assay [5] is given as less than 25%. For the same compound, the inhibition at 1 µM fell in the range of 10 to 30% in assay [2] (setting [6]), 10 to 30% in assay [2] (setting [7]), 50 to 70% in assay [3] (setting [8]) and 50 to 70% in assay [3] (setting [9]).
As to `CCC(=O)CCc1ccc(Oc2nc3ccccc3s2)c(F)c1` [Compound 152, 1-[4-(1,3-benzothiazol-2-yloxy)-3-fluorophenyl]-pentan-3-one], the inhibition at 3 µM in assay [4] was less than 25%; in assay [2], 30 to 50%. Also, the “% Inhibition aminopeptidase-PGP activity of LTA4H” value in assay [5] is listed as 25-50%. Further, the inhibition at 1 µM in assay [2] (setting [7]) lay in the range of 30 to 50%; in assay [3] (setting [9]) it was 50 to 70%.
As for `COc1cc(CCC(C)(O)C(F)(F)F)ccc1OCc1ccc2ccccc2n1` (centres unmarked) [Compound 184, 1,1,1-trifluoro-4-[3-methoxy-4-(quinolin-2-ylmethoxy)phenyl]-2-methylbutan-2-ol], in assay [1], the half-inhibitory concentration (IC50) lay in the range of 0.1 to 1 µM. In assay [4], the inhibition at 3 µM is less than 25%. For the same compound, the “% Inhibition aminopeptidase-PGP activity of LTA4H” value in assay [5] is reported as 25-50%.
For `CCC(O)CCc1ccc(Oc2nc3ccccc3s2)c(OC2CCCC2)c1` (centres unmarked) [Compound 186, 1-[4-(1,3-benzothiazol-2-yloxy)-3-(cyclopentyloxy)-phenyl]pentan-3-ol], the figures for the inhibition at 3 µM in assay [4] and in assay [2] were more than 75% and 70 to 90%, respectively. Moreover, the “% Inhibition aminopeptidase-PGP activity of LTA4H” value in assay [5] is more than 75%.
The corresponding values for `CCC(O)CCc1ccc(Oc2nc3ccccc3s2)c(OCC2CC2)c1` (centres unmarked) [Compound 187, 1-[4-(1,3-benzothiazol-2-yloxy)-3-(cyclopropylmethoxy)-phenyl]-pentan-3-ol] are more than 75%, 50 to 70% and 50-75%.
Consider `CCC(CCc1ccc(Oc2nc3ccccc3s2)c(OC)c1)N1CCN(C)CC1` (centres unmarked) [Compound 188, 1-[4-(1,3-benzothiazol-2-yloxy)-3-methoxyphenyl]-3-(4-methylpiperazinyl-1yl)pentane], for which the inhibition at 3 µM was less than 25% in assay [4] and 10 to 30% in assay [2]. The “% Inhibition aminopeptidase-PGP activity of LTA4H” value in assay [5] was 25-50%.
Regarding `CC(CCc1ccc(OCc2ccc3ccccc3n2)cc1)N1CCCC1` (centres unmarked) [Compound 190], the inhibition at 3 µM in assay [4] is less than 25%; in assay [2], 30 to 50%. Besides, the “% Inhibition aminopeptidase-PGP activity of LTA4H” value in assay [5] is given as 25-50%.

In general, IC50 refers to the midpoint of a concentration-inhibition curve. The term inhibition denotes the percentage by which the read-out fell short of the control.
